# Laboratory results taken from patent US20250312416A1, “METHOD AND PHARMACEUTICAL COMPOSITION FOR CARTILAGE REGENERATION” (FAR EASTERN MEMORIAL HOSPITAL, priority 2024, published 2025).
# “Also recorded” adds a separate entry of the source.
# Experiments:
# clinical-grade ADSCs [1] = experiment: Real-time PCR of chondrogenic genes in ADSCs; format: cell-based, human; details: for expression of chondrogenic genes (SOX9, COL2A1, COMP, ACAN, ITGB1, CXCL14, CXCR4): alanine-substituted variants, 10 ng one-day treatment, day 7, relative to untreated control ADSCs
# Experimental: Real-time PCR analysis was conducted on day 7 for CXCL12/CXCL14 peptides treated ADSCs, evaluating the expression of COMP, SOX9, COL2A1, ACAN, ITGB1, and SOSTDC1 genes. Cells were harvested, and RNA extraction was performed using a LightCycler® (Roche Applied Science). The fold change in gene expression on the y-axis was calculated relative to the same gene expression in untreated chondrocytes. Statistical analysis was conducted using one-way ANOVA. Significance levels are denoted as follows: * p<0.05, ** p<0.01, *** p<0.001, and **** p<0.0001 for comparisons between PBS treatments and the untreated group.
# Real-time PCR analysis was performed on day 7 for ADSCs treated with CXCR4 agonists, assessing the expression of COMP, SOX9, COL2A1, ACAN, ITGB1, CXCL14, and SOSTIC1 genes. Cellular harvest, RNA extraction, and gene expression quantification were conducted using a LightCycler® (Roche Applied Science). The fold change in gene expression on the y-axis was calculated relative to the same gene expression in untreated chondrocytes. Statistical analysis was executed through one-way ANOVA. Significance levels are represented as follows: * p<0.05, ** p<0.01, *** p<0.001, and **** p<0.0001, indicating the significance of comparisons between PBS treatments and the untreated group.
# (§1) Alcian blue staining was used to assess the chondrogenic differentiation of ADSC pellets. […] Treatment with CXCL14-PM1, CXCL14-PM2, CXCL14-PM3, and CXCR4-PM1 was sufficient to enhance the expression of chondrogenic genes in ADSCs. On day 7, real-time PCR was performed to analyze the expression of key chondrogenic markers, including SOX9, COL2A1, COMP, ACAN, ITGB1, CXCL14, and CXCR4, in ADSCs treated with these modified peptides. ADSCs were exposed to distinct peptide modifications derived from CXCL12, CXCL14, and CXCR4 at a concentration of 10 ng for a one-day treatment, after which the medium was replaced with fresh peptide-free medium. At the end of the treatment period, RNA was extracted to evaluate the expression levels of chondrogenesis-related cytokine genes. Gene expression quantification was performed using a LightCycler system (Roche Applied Science), and fold changes were calculated relative to untreated control ADSCs. […] FIG. 16(D) provides a summary of the results for alanine substitution with positively or negatively charged amino acids in CXCL12, CXCL14, and CXCR4 peptides.
# ADSCs were treated with CXCL14-P, CXCL14-P1, or CXCL14-P2, respectively, at a concentration of 10 ng for 24 hours, after which the medium was replaced with fresh peptide-free medium. On day 7, total RNA was extracted, and real-time PCR analysis was performed to assess the expression levels of key chondrogenic markers, including ACAN, COL2A1, SOX9, and COMP. Gene expression levels were quantified using a LightCycler system (Roche Applied Science), with fold changes calculated relative to untreated control ADSCs. […] Immunofluorescence staining was performed to detect Collagen Type II, SOX9, COMP, and nuclei (Hoechst 33342) in 3D ADSC spheroids (middle panel). […]
# Human IPFP-MSCs and ADSCs were expanded in Dulbecco's Modified Eagle's Medium (DMEM, Gibco, cat. no 2145484) with 10% FBS under a 37° C., 5% CO2 atmosphere. MSCs collected and cell extractions were determined gene expression levels of cytokines and chondrogenic markers using a LightCycler® (Roche Applied Science). The fold change in gene expression on the y-axis was calculated based on untreated cell gene expression.
# clinical-grade ADSCs [2] = experiment: Alcian blue staining of chondrogenic pellets (GAG), ADSCs; format: cell-based, human; details: for GAG deposition (Alcian blue): day 7, CXCL14 variants vs CXCL14-P, CXCR4-PM1 vs control
# Experimental: The chondrogenic differentiation of pellets containing clinical-grade ADSCs was assessed through Alcian blue staining.
# The chondrogenic differentiation of pellets containing clinical-grade ADSCs was evaluated using Alcian blue staining.
# as §1
# To assess differentiation capacity, single-cell suspensions from cultured IPFP-MSCs and ADSCs were cultivated in chondrogenic medium. Alcian Blue staining was performed on day 7 to evaluate chondrogenic differentiation. The chondrogenic differentiation test was measured gene expressions of ACAN, COL2A1, SOX9, COMP, ITGB1, CXCL14 and SOSTDC1.
# UC-MSCs [3] = experiment: Real-time PCR of chondrogenic genes in UC-MSCs; format: cell-based; details: day 7 of peptide treatment
# Description: (§2) FIG. 13A provides flowchart illustrating the protocol for peptide treatment and sample collection. […] TGF-beta influenced the expression of chondrogenic genes, including ITGB1 and COMP. […] Treatment with CXCL14/CXCL12 peptides increased GAG content during chondrogenesis in the presence of TGF-beta.
# (§3) To further validate the role of CXCL14-P and CXCL12-P in regulating chondrogenesis, we compared their effects on another MSC source, umbilical cord-derived mesenchymal stem cells (UC-MSCs). It is important to note that the chondrogenic induction medium contained TGF-β. During chondrogenesis, we observed that the chondrogenic patterns in UC-MSCs were lower than those in ADSCs (FIG. 12). Subsequently, we assessed the chondrogenic potential of UC-MSCs following stimulation with CXCL14-P and CXCL12-P (FIG. 13A). […] Although the expression of chondrogenic genes (FIG. 13B) and GAG content (FIG. 13C) in UC-MSCs was not as pronounced as in ADSCs, the findings confirm that CXCL14-P and CXCL12-P can robustly stimulate chondrogenesis across different MSC sources.
# UC-MSCs [4] = experiment: Alcian blue staining of chondrogenic pellets (GAG), UC-MSCs; format: cell-based; details: in the presence of TGF-beta
# Description: as §2, §3
# ADSCs = experiment: Cellular uptake of fluorescently labeled peptides by fluorescence microscopy; format: cell-based, human; details: 10 ng FITC-conjugated peptide, 37° C. for one day, observed days 1, 3, 7
# Experimental: Cell-penetrating properties of CXCL14-P and CXCL12-P peptides in ADSCs were analyzed. ADSCs were incubated with 10 ng of FITC-conjugated peptides at 37° C. for one day, followed by refreshing the chondrogenic medium. Peptide internalization was evaluated through fluorescence microscopy on days 1, 3, and 7.
# We further explored whether peptides derived from CXCL14 and CXCL12 have the capacity to induce chondrogenesis in MSCs from different sources. To assess their potential, ADSCs were utilized in the study to evaluate the chondrogenic capacity of CXCL14-P and CXCL12-P on day 7 (FIG. 10A). […] FIG. 11 illustrates the cell-penetrating properties of CXCL14-P and CXCL12-P peptides in ADSCs, analyzed at different time points. ADSCs were incubated with FITC-conjugated peptides for one day, after which the chondrogenic medium was refreshed. […] Collectively, these observations indicate that CXCL14-P and CXCL12-P have the ability to stimulate chondrogenesis and further amplify the effects of TGF-β during the chondrogenic process.
# ADSC spheroids = experiment: Immunofluorescence / confocal microscopy of chondrogenic proteins in ADSC spheroids; format: cell-based, human; details: ADSC spheroids, 7 days
# Experimental: Both side views (observed in the x and z plane) and bottom views (observed in the […]) of the images are provided. The scale bar is set at 500 μm.
# ADSCs were treated with CXCL14-P, CXCL14-P1, or CXCL14-P2, respectively, at a concentration of 10 ng for 24 hours, after which the medium was replaced with fresh peptide-free medium. On day 7, total RNA was extracted, and real-time PCR analysis was performed to assess the expression levels of key chondrogenic markers, including ACAN, COL2A1, SOX9, and COMP. Gene expression levels were quantified using a LightCycler system (Roche Applied Science), with fold changes calculated relative to untreated control ADSCs. […] Immunofluorescence staining was performed to detect Collagen Type II, SOX9, COMP, and nuclei (Hoechst 33342) in 3D ADSC spheroids (middle panel).
# (FIG. 3). […] Moreover, fluorescence confocal microscopy was employed to detect protein patterns and confirm the levels of SOX9, type II collagen, and aggrecan proteins in ADSC spheroids. […] Finally, to investigate whether the CXCR4 receptor of CXCL12/CXCL14 confers chondrogenic signaling during chondrogenesis, we treated ADSCs with a CXCR4 agonist for 7 days.
# Extracellular vesicles (EVs) derived from MSCs hold significant potential for repairing damaged tissues. In this study, we explored whether EVs from ADSCs could effectively enhance chondrogenesis and promote cartilage repair. Immunofluorescence staining was used to assess protein levels of Collagen Type II (green), SOX9 (red), COMP (indigo), and Hoechst 33342 (gray) in 3D ADSC spheroids treated with MSC-EVs derived from CXCL14 peptide-primed ADSCs (CXCL14-P-MSC-EVs) at various time points. […] To further explore the cartilage repair functions of EVs from CXCL14-P-treated ADSCs and the encapsulation of the transcription factor SOX9 within MSCs and purified EVs, we performed in vivo studies.
substance,measurement,setting,value
ITTKSVSRYRGDEH [CXCL14-PM3],"expression of chondrogenic genes (SOX9, COL2A1, COMP, ACAN, ITGB1, CXCL14, CXCR4)",clinical-grade ADSCs [1],significantly enhance
same,GAG deposition (Alcian blue),clinical-grade ADSCs [2],increased GAG deposition; also recorded: did not significantly alter GAG contents
RANVKHLKILN [CXCL12-P],"expression of chondrogenic genes (COMP, SOX9, COL2A1, ACAN, ITGB1, SOSTDC1)","clinical-grade ADSCs [1]; day 7, peptides compared to CXCL12/CXCL14 proteins, listed as CXCL12 peptide",significantly upregulated; also recorded: greater ability
same,"expression of chondrogenic genes (COMP, SOX9, COL2A1, ACAN, ITGB1)",clinical-grade ADSCs [1]; day 7 of treatment with peptide,significantly upregulated
same,chondrogenic genes,clinical-grade ADSCs [1]; in the absence of TGF-β,evident
same,expression of chondrogenic genes ITGB1 and COMP,"clinical-grade ADSCs [1]; in the presence of TGF-β, day 7",significantly enhanced
same,GAG content (Alcian blue),clinical-grade ADSCs [2]; in the absence of TGF-β,evident
same,GAG content (Alcian blue),clinical-grade ADSCs [2]; in the presence of TGF-beta,significantly increased
same,GAG content (Alcian blue),"clinical-grade ADSCs [2]; peptides compared to CXCL14/CXCL12 proteins, listed as CXCL12 peptide",significantly higher; also recorded: greater ability
same,"chondrogenic gene expression (COMP, SOX9, COL2A1, ACAN, ITGB1)",UC-MSCs [3],significantly upregulated
same,GAG content (Alcian blue),UC-MSCs [4],increased
same,peptide internalization (cell penetration),ADSCs,remain detectable up to day 7
ITTKSVSRYRGQAH [CXCL14-PM2],"expression of chondrogenic genes (SOX9, COL2A1, COMP, ACAN, ITGB1, CXCL14, CXCR4)",clinical-grade ADSCs [1],significantly enhance
same,GAG deposition (Alcian blue),clinical-grade ADSCs [2],increased GAG deposition; also recorded: enhance GAG contents
MGYGAALASMTDAYAL (MGYQAALASMTDAYAL) [CXCR4-PM1],"expression of chondrogenic genes (SOX9, COL2A1, COMP, ACAN, ITGB1, CXCL14, CXCR4)",clinical-grade ADSCs [1],significantly enhance
same,GAG deposition (Alcian blue),clinical-grade ADSCs [2],increased GAG deposition; also recorded: significantly enhanced
AANVAHLAILN [CXCL12-PM1],"expression of chondrogenic marker genes, variant vs unmodified peptide","clinical-grade ADSCs [1]; CXCL12-P vs CXCL12-PM1, day 7",no significant changes
same,"expression of chondrogenic genes (SOX9, COL2A1, COMP, ACAN, ITGB1, CXCL14, CXCR4)",clinical-grade ADSCs [1],significantly enhance
ITTASVSAYAGQEH [CXCL14-PM1],"expression of chondrogenic genes (SOX9, COL2A1, COMP, ACAN, ITGB1, CXCL14, CXCR4)",clinical-grade ADSCs [1],significantly enhance
same,GAG deposition (Alcian blue),clinical-grade ADSCs [2],increased GAG deposition; also recorded: enhance GAG contents
"CXCL12: C-X-C motif chemokine 12, also known as stromal cell-derived factor 1 (SDF-1)","expression of SOX9, type II collagen, and aggrecan",ADSC spheroids,notably induced
